Measured values published in patent publication US6461997B1, “Triazole sulfones having herbicidal activity” (Monsanto Technology LLC, priority 1999, dated 2002).

Assays:
[1] = system: ECHCG (barnyardgrass); assay: Pre-emergence herbicidal activity, warm season; format: in vivo, Echinochloa crus-galli; details: for inhibition at 10 g/ha / inhibition at 30 g/ha / inhibition at 100 g/ha / inhibition at 300 g/ha / inhibition at 900 g/ha: Echinochloa crus-galli, pre-emergence application, read-out: Percent inhibition, weed ECHCG; for Pre-emergence activity (GR80) ECHCG: GR80 = lowest tested rate (300, 100, 30, 10 g/ha) with 80% or greater inhibition, approx. 14 days after treating, 30/21° C.
In short: (§1)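 GR80 values derive from percent inhibition relative to untreated plants, read roughly 14 days after sowing and pre-emergence soil-surface treatment (compound in 50:50 acetone/water; rates typically 10, 30, 100, 300 g/ha). Warm-season weeds grew at 30/21° C day/night, cool-season ones at 18/13° C; an asterisk marks activity without reaching 80% at the highest rate.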

[2] = system: GALAP (catchweed bedstraw); assay: Pre-emergence herbicidal activity, cool season; format: in vivo, Galium aparine; details: lowest tested rate with 80% or greater inhibition; rates 300, 100, 30, 10 g/ha; about 14 days
In short: as §1

[3] = system: DIGSA (large crabgrass); assay: Pre-emergence herbicidal activity, warm season; format: in vivo, Digitaria sanguinalis; details: for inhibition at 10 g/ha / inhibition at 30 g/ha / inhibition at 100 g/ha / inhibition at 300 g/ha / inhibition at 900 g/ha: Digitaria sanguinalis, pre-emergence application, read-out: Percent inhibition, weed DIGSA; for Pre-emergence activity (GR80) DIGSA: GR80 = lowest tested rate (300, 100, 30, 10 g/ha) with 80% or greater inhibition, approx. 14 days after treating, 30/21° C.
In short: (§2)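 Pre-emergence soil-surface spray; rates 300/100/30/10 g/ha; acetone:water 50:50 diluent. Warm-season species (PANMI, DIGSA) grown at 30/21 °C, cool-season species (ALOMY, POLCO) at 18/13 °C. Inhibition scored ~14 d after treatment versus untreated controls → GR80.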

[4] = system: SETVI (green foxtail); assay: Pre-emergence herbicidal activity, cool season; format: in vivo, Setaria viridis; details: GR80 = lowest tested rate (300, 100, 30, 10 g/ha) with 80% or greater inhibition; approx. 14 days after treating; 18/13° C.
In short: as §1

[5] = system: POLCO (wild buckwheat); assay: Pre-plant incorporated (PPI) herbicidal activity, cool season; format: in vivo, Polygonum convolvulus; details: for inhibition at 30 g/ha / inhibition at 100 g/ha / inhibition at 300 g/ha / inhibition at 900 g/ha: Fallopia convolvulus, weed, PPI application, read-out: Percent inhibition POLCO; for PPI activity GR80, POLCO: pre-plant incorporated, lowest tested rate with 80% or greater inhibition, about 14 days
Method: (§3) In another set of tests, the pre-plant incorporated (PPI) activity of compounds of this invention was evaluated on the same species as for the pre-emergence tests described above. In the PPI tests the following procedure, designed to simulate PPI application, was used.
(§4) A pre-prepared topsoil mixture (described above) was placed in a pot and compacted to a depth of 1.0 to 1.25 cm from the top of the pot. Seeds of each of several monocotyledonous and dicotyledonous annual plant species were placed on top of the soil. A sufficient quantity of soil to cover the seeds and level fill the pot was weighed into an open container. A known amount of the test compound was dissolved or suspended in an organic solvent and applied by spraying to this cover soil. The cover soil was thoroughly mixed to distribute the test compound throughout the cover soil, and was then applied as a cover layer over the seeds. Untreated soil was used as a cover layer for control pots. After treatment the plants were placed in a greenhouse where they received 0.64 cm of overhead irrigation. All subsequent watering consisted of a light overhead mist and/or subirrigation as needed for germination and growth. Tables 9 and 10 below relate to warm season plant species which were placed after pre-emergence treatment in a greenhouse with a 30/21° C. day/night temperature regime. Tables 11 and 12 below relates to cool season plant species placed after pre-emergence treatment in a greenhouse or growth chamber with an 18/13° C. day/night temperature regime. Only the compounds of Examples 1, 6, 8, 11, 13 and 15-20 were included in PPI tests.
(§5) Approximately 14 days after planting and treating, the plants were observed and herbicidal efficacy recorded as percent inhibition by comparison with untreated plants.

[6] = system: SETVI (green foxtail); assay: Post-emergence herbicidal activity, cool season; format: in vivo, Setaria viridis; details: abraded plants sprayed at 300, 100, 30 and 10 g/ha; about 14 days after treatment
In short: (§6)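 Greenhouse test on sand-abraded seedlings sprayed 9 to 14 days after planting at 300, 100, 30 and 10 g/ha; GR80 from percent inhibition versus controls at approximately 14 days.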

[7] = system: AGSST (creeping bentgrass); assay: Post-emergence herbicidal activity, cool season; format: in vivo, Agrostis stolonifera; details: abraded plants sprayed at 300, 100, 30 and 10 g/ha; about 14 days after treatment
In short: as §6

[8] = system: PANMI (wild proso millet); assay: Pre-emergence herbicidal activity, warm season; format: in vivo, Panicum miliaceum; details: for Pre-emergence activity (GR80) PANMI: GR80 = lowest tested rate (300, 100, 30, 10 g/ha) with 80% or greater inhibition, approx. 14 days after treating, 30/21° C.; for inhibition at 10 g/ha / inhibition at 30 g/ha / inhibition at 100 g/ha / inhibition at 300 g/ha / inhibition at 900 g/ha: Panicum miliaceum, pre-emergence application, read-out: Percent inhibition, weed PANMI
In short: as §2

[9] = system: STEME (common chickweed); assay: Pre-plant incorporated (PPI) herbicidal activity, cool season; format: in vivo, Stellaria media; details: for inhibition at 30 g/ha / inhibition at 100 g/ha / inhibition at 300 g/ha / inhibition at 900 g/ha: Stellaria media, weed, PPI application, read-out: Percent inhibition STEME; for PPI activity GR80, STEME: pre-plant incorporated, lowest tested rate with 80% or greater inhibition, about 14 days
Method: as §3, §4, §5

SMILES | inhibition at 10 g/ha [1] [%] | inhibition at 30 g/ha [1] [%] | inhibition at 100 g/ha [1] [%] | inhibition at 300 g/ha [1] [%] | inhibition at 900 g/ha [1] [%] | Pre-emergence activity (GR80) ECHCG [1] [g/ha] | Pre-emergence activity GR80, GALAP [2] | inhibition at 10 g/ha [3] [%] | inhibition at 30 g/ha [3] [%] | inhibition at 100 g/ha [3] [%] | inhibition at 300 g/ha [3] [%] | inhibition at 900 g/ha [3] [%] | Pre-emergence activity (GR80) DIGSA [3] [g/ha] | Pre-emergence activity (GR80) SETVI [4] [g/ha] | inhibition at 30 g/ha [5] [%] | PPI activity GR80, POLCO [5] | Post-emergence activity GR80, SETVI [6] | Post-emergence activity GR80, AGSST [7] | Pre-emergence activity (GR80) PANMI [8] [g/ha] | PPI activity GR80, STEME [9] [g/ha] | further results
CCN(CC)C(=O)n1cnc(S(=O)(=O)C(F)(F)Br)n1 [Example 1, 3-(bromodifluoromethylsulfonyl)-1-(N,N-diethylcarbamoyl)-1,2,4-triazole] | 0 | 10 | 45 | 80 | 95 | 30 | 100 g/ha | 0 | 60 | 100 | 100 | 100 | 30 | 30 | 30 | * (activity observed, at least at highest rate, but <80% inhibition) | [empty] | [empty] | 100 | 100 | inhibition at 100 g/ha [5]: 90%; inhibition at 300 g/ha [5]: 100%; inhibition at 900 g/ha [5]: 100%; inhibition at 10 g/ha [8]: 0%; inhibition at 30 g/ha [8]: 0%; inhibition at 100 g/ha [8]: 30%; inhibition at 300 g/ha [8]: 100%; inhibition at 900 g/ha [8]: 90%; inhibition at 30 g/ha [9]: 60%; inhibition at 100 g/ha [9]: 100%; inhibition at 300 g/ha [9]: 99%; inhibition at 900 g/ha [9]: 95%
C=C(C)CC(F)(F)S(=O)(=O)c1ncn(C(=O)N(CC)CC)n1 [Example 18] | – | – | – | – | – | 100 | 300 g/ha | – | – | – | – | – | 100 | 30 | – | 100 g/ha | [empty] | [empty] | 30 | 100 | –
CCSC(F)(F)S(=O)(=O)c1ncn(C(=O)N(CC)CC)n1 [Example 8, 1-(N,N-diethylcarbamoyl)-3-[difluoro(ethylthio)methylsulfonyl]-1,2,4-triazole] | – | – | – | – | – | 100 | [empty] | – | – | – | – | – | 100 | 100 | 0 | 300 g/ha | [empty] | [empty] | 100 | 30 | inhibition at 100 g/ha [5]: 0%; inhibition at 300 g/ha [5]: 85%; inhibition at 900 g/ha [5]: 100%; inhibition at 30 g/ha [9]: 80%; inhibition at 100 g/ha [9]: 80%; inhibition at 300 g/ha [9]: 95%; inhibition at 900 g/ha [9]: 99%
CCN(CC)C(=O)n1cnc(S(=O)(=O)C(F)F)n1 [Example 15, 1-(N,N-diethylcarbamoyl)-3-(difluoromethylsulfonyl)-1,2,4-triazole] | 0 | 0 | 20 | 60 | 70 | 100 | – | 70 | 40 | 80 | 100 | 100 | 30 | – | – | 300 g/ha | [empty] | [empty] | 30 | 300 | inhibition at 10 g/ha [8]: 0%; inhibition at 30 g/ha [8]: 0%; inhibition at 100 g/ha [8]: 20%; inhibition at 300 g/ha [8]: 40%; inhibition at 900 g/ha [8]: 99%
